The target in data set [1] is Integrin alpha-V/beta-3 (Homo sapiens, UniProt P05106+P06756). Briefly: Inhibition of high affinity radioligand binding to human alphaV-beta3 integrin. The data set is classed as protein-complex assay.
In data set [2] the target is T1, Integrin alpha-IIb/beta-3 (Homo sapiens) (UniProt P05106+P08514). Briefly: Inhibition of ADP-stimulated alphaIIb-beta3 integrin mediated human platelet aggregation at 10 uM.
Data set [3] is described as follows: Partition coefficient (logP). The data set is classed as physicochemical. The following applies: octanol/water.
For data set [4], the target named is T1, Integrin alpha-IIb/beta-3 (Homo sapiens). Briefly: Inhibition of ADP-stimulated alphaIIb-beta3 integrin mediated human platelet aggregation at 776 uM.
The target is the same in data set [5]. Briefly: Inhibition of ADP-stimulated alphaIIb-beta3 integrin mediated human platelet aggregation at 11 uM.
Data set [6] shares this target. Put plainly: Inhibition of ADP-stimulated alphaIIb-beta3 integrin mediated human platelet aggregation at 5.7 uM.
Data set [7] in a line: Bioavailability (dose 1 mg/kg p.o. and 0.2 mg/kg i.v.). The following applies: eutheria, in vivo, po. The data set is classed as ADME, organism-based.
Data set [8] can be described thus: Compound was tested for plasma clearance on administered orally as aqueous solutions at 1 mpk and by iv at 0.2 mpk. The settings on record: 0.2 mg/kg. The data set is classed as ADME, organism-based.

The structures appear in SMILES notation.

Chain of Integrin alpha-V/beta-3 (P05106 27-788 limits assumed): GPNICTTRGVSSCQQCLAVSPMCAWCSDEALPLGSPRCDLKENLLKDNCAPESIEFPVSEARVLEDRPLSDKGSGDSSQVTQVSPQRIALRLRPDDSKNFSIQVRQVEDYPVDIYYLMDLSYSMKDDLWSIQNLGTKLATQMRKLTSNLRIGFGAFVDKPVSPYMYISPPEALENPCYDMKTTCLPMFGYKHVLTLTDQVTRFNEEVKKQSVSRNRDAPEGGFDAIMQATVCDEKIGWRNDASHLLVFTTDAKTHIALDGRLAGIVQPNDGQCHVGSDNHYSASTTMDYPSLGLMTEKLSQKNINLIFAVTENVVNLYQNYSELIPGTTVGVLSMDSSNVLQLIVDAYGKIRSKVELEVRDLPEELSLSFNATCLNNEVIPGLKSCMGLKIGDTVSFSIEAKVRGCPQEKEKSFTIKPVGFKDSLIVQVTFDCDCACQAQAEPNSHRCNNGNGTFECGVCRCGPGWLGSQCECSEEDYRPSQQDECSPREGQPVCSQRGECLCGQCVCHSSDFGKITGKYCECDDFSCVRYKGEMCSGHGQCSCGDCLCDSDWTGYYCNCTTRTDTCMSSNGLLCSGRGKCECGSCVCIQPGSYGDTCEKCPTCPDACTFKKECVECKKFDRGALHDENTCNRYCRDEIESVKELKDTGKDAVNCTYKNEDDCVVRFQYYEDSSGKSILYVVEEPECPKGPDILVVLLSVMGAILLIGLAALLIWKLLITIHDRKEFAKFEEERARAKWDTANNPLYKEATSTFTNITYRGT
Chain of Integrin alpha-V/beta-3 (P06756 31-889 limits assumed): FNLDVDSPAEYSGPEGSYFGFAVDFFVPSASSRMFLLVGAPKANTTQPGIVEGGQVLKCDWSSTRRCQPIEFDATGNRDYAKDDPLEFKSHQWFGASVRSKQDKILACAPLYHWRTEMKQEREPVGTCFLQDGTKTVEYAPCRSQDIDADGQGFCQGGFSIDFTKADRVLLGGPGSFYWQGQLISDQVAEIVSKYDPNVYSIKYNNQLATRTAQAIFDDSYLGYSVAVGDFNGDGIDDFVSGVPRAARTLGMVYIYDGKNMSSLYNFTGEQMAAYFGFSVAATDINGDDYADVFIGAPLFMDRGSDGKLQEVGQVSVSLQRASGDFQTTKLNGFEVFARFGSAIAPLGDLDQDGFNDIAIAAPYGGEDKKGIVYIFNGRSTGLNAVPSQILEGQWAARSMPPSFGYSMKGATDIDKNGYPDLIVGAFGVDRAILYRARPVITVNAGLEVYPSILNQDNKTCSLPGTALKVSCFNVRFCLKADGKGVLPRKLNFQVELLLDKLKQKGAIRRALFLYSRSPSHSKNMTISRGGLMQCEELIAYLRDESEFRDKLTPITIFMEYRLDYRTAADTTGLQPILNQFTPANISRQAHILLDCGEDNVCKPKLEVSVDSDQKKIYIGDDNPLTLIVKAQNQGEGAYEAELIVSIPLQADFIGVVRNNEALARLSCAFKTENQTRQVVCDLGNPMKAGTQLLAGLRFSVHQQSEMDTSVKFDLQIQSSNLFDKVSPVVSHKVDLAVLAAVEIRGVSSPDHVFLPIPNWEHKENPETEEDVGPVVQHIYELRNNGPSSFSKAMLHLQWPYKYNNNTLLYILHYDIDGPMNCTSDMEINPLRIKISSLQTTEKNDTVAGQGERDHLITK
Chain of Integrin alpha-V/beta-3 (P06756 891-1048 limits assumed): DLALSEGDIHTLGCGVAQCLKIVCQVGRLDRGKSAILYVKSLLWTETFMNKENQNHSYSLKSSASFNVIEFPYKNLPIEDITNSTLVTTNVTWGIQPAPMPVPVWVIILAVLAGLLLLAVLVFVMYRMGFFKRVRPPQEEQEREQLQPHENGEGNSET

As to `O=C(O)C[C@H](NC(=O)CN1CC[C@H](CCc2ccc3c(n2)NCCC3)C1=O)c1ccc2c(c1)OCC2`, the concentration for half-maximal inhibition (IC50) in data set [1] amounted to 0.11 nM. Besides, the inhibition in data set [2] was found to be 60%.

In data set [1], `O=C(O)C[C@H](NC(=O)CN1CC[C@H](CCc2ccc3c(n2)NCCC3)C1=O)c1ccc(-c2ccccc2)c(F)c1` had an IC50 of 0.57 nM. The inhibition in data set [2] was found to be 3%.

As to `O=C(O)C[C@H](NC(=O)CN1CC[C@H](CCc2ccc3c(n2)NCCC3)C1=O)c1cccc(F)c1`, the IC50 in data set [1] stood at 1.8 nM. In data set [2], this compound came in with an inhibition of 6%.

For the compound `COc1ccc([C@H](CC(=O)O)NC(=O)CN2CC[C@H](CCc3ccc4c(n3)NCCC4)C2=O)cc1F`, the IC50 in data set [1] turned out to be 0.49 nM. Also, in data set [2], the inhibition worked out at 30%.

Regarding `O=C(O)C[C@H](NC(=O)CN1CC[C@H](CCc2ccc3c(n2)NCCC3)C1=O)c1ccc2c(c1)OC(F)(F)O2`, in data set [1], the IC50 amounted to 5.8 nM. Also, the lipophilicity (logP) in data set [3] came to 1.44. The inhibition in data set [2] turned out to be 3%.

`O=C(O)C[C@H](NC(=O)CN1CC[C@H](CCc2ccc3c(n2)NCCC3)C1=O)c1ccc2nc(O)oc2c1` came in with an inhibition in data set [2] of 19%.

`O=C(O)C[C@H](NC(=O)CN1CC[C@H](CCc2ccc3c(n2)NCCC3)C1=O)c1ccc2c(c1)CCC2`: in data set [1], the IC50 was 29 nM.

Consider `O=C(O)C[C@H](NC(=O)CN1CC[C@H](CCc2ccc3c(n2)NCCC3)C1=O)c1cnc2ccccc2c1`, for which, in data set [1], the IC50 worked out at 0.04 nM. For the same compound, the inhibition in data set [4] worked out at 50%.

On to `O=C(O)CCNC(=O)CN1CC[C@H](CCc2ccc3c(n2)NCCC3)C1=O`, for which, in data set [1], the IC50 was 230 nM. In other words, the sub-micromolar range.

Take `O=C(O)C[C@H](NC(=O)CN1CC[C@H](CCc2ccc3c(n2)NCCC3)C1=O)c1ccc2ccsc2c1`: the IC50 in data set [1] amounted to 2.2 nM. In addition, the inhibition in data set [2] is 29%.

For the compound `CCOc1ccc([C@H](CC(=O)O)NC(=O)CN2CC[C@H](CCc3ccc4c(n3)NCCC4)C2=O)cc1F`, the IC50 in data set [1] was 0.31 nM. In data set [2], this compound yielded an inhibition of 28%.

In the case of `O=C(O)C[C@H](NC(=O)CN1CC[C@H](CCc2ccc3c(n2)NCCC3)C1=O)c1ccc2ncsc2c1`, in data set [1], the IC50 was found to be 3.7 nM. Besides, the inhibition in data set [2] was 19%.

In data set [1], `O=C(O)C[C@H](NC(=O)CN1CC[C@H](CCc2ccc3c(n2)NCCC3)C1=O)c1ccc2c(c1)CCO2` showed an IC50 of 1.1 nM. Further, the inhibition in data set [2] was determined as 20%.

For `O=C(O)C[C@H](NC(=O)CN1CC[C@H](CCc2ccc3c(n2)NCCC3)C1=O)c1cccnc1`, the inhibition in data set [5] is 50%. Moreover, in data set [1], the half-maximal inhibitory concentration (IC50) came to 0.35 nM.

In data set [1], `O=C(O)C[C@H](NC(=O)CN1CC[C@H](CCc2ccc3c(n2)NCCC3)C1=O)c1ccc2[nH]c(=O)oc2c1` showed a half-maximal inhibitory concentration (IC50) of 0.29 nM.

Regarding `O=C(O)C[C@H](NC(=O)CN1CC[C@H](CCc2ccc3c(n2)NCCC3)C1=O)c1ccccc1`, the IC50 in data set [1] amounted to 4 nM. Moreover, the inhibition in data set [2] came to 8%.

As for `O=C(O)C[C@H](NC(=O)CN1CC[C@H](CCc2ccc3c(n2)NCCC3)C1=O)c1ccc2c(c1)OCO2`, in data set [6], the inhibition came out at 50%. The IC50 in data set [1] turned out to be 0.32 nM. Moreover, the bioavailability in data set [7] came to 30%. This compound displayed a logP in data set [3] of 0.26. The compound further had a clearance in data set [8] of 25 mL/min/kg.

For the origin of these results see ChEMBL document CHEMBL1135090, “Non-peptide alpha(v)beta(3) antagonists. Part 3: identification of potent RGD mimetics incorporating novel beta-amino acids as aspartic acid replacements” (Bioorg Med Chem Lett, 2002).
